Test in all cases: cAMP functional assay (HTRF) in HEK293 cells in presence of 0.1% casein
Common to all, as to type: cell-based
(Time-resolved FRET reads energy transfer from a long-lived donor to a nearby acceptor.)

In assay [1] the target is T1, human glucose-dependent insulinotropic peptide receptor (GIPR) (Homo sapiens, UniProt P48546).
T1 construct: expressed in transfected cells; host or cells: HEK293
T1 sequence (P48546 22-466): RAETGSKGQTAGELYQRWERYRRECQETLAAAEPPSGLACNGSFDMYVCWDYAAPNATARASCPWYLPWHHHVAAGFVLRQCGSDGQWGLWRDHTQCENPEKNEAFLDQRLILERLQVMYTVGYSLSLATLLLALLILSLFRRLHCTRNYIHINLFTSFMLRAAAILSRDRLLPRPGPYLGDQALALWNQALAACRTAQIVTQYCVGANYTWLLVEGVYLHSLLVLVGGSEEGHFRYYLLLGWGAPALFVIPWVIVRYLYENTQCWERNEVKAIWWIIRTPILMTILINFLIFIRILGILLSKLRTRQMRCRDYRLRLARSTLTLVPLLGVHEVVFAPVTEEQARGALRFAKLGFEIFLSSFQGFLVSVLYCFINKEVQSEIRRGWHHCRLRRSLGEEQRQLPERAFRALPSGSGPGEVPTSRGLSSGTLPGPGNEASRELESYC
The following applies: HEK293 cells expressing human GIPR, geometric mean, read-out: hGIPR cAMP Rel EC50 nM (SEM, n).

The target in assay [2] is T2, human glucagon receptor (GcgR) (Homo sapiens, UniProt P47871).
T2 construct: expressed in transfected cells; host or cells: HEK293
To be noted: HEK293 cells expressing human GcgR, geometric mean, read-out: hGcgR cAMP Rel EC50 nM (SEM, n).

The target in assay [3] is T3, human GLP-1 receptor (GLP-1R) (Homo sapiens, UniProt P43220).
T3 construct: expressed in transfected cells; host or cells: HEK293
To be noted: HEK293 cells expressing human GLP-1R, geometric mean, read-out: hGLP1R cAMP Rel EC50 nM (SEM, n).

Molecules are shown by their SMILES. *1 amine or outer side, *2 acyl side, *3 side chain or, on linkers, in order; H or OH if unused. Where a SMILES comes first, the peptide text is derived from it. Side-chain parts run from the residue outwards. [ ]: non-standard residue; d: D form. The star is where a group is joined. C20 diacid = O=C(O)CCCCCCCCCCCCCCCCCCC(=O)*; C18 diacid = O=C(O)CCCCCCCCCCCCCCCCC(=O)*; αMePhe(2-F) = C[C@](N)(Cc1ccccc1F)C(=O)O; γGlu = O=C(O)[C@H](CCC(=O)[*:2])N[*:1]; 4Pal = N[C@@H](Cc1ccncc1)C(=O)O; αMeL = CC(C)C[C@](C)(N)C(=O)O; Orn = NCCC[C@H](N)C(=O)O; AEEA = NCCOCCOCC(=O)O; Aib = CC(C)(N)C(=O)O Bounds are passed on as bounds.

T2 sequence (P47871 26-477): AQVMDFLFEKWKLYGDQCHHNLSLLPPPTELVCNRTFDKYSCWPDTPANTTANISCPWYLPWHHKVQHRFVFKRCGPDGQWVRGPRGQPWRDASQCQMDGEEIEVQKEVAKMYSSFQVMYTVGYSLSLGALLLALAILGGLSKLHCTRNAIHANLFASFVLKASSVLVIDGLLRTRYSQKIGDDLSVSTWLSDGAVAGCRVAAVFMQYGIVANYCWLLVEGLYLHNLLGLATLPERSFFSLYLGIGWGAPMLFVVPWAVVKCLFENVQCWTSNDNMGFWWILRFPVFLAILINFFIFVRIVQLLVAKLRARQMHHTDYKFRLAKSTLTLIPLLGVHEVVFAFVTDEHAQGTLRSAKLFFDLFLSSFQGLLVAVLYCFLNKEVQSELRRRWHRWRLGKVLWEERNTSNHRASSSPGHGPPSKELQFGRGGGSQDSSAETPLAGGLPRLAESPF
T3 sequence (P43220 24-463): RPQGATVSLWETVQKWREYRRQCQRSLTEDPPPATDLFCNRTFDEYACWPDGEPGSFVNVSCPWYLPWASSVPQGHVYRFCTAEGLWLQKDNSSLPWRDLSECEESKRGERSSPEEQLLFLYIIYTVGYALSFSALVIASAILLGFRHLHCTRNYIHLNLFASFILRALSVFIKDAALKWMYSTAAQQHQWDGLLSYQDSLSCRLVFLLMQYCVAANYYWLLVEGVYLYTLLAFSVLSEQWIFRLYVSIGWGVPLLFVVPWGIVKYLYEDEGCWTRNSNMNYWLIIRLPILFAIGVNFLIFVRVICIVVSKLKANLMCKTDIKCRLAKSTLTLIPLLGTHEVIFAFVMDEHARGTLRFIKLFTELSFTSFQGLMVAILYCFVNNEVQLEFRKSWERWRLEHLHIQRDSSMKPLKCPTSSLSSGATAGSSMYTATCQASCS

`CC[C@H](C)[C@H](NC(=O)[C@H](CO)NC(=O)[C@H](Cc1ccc(O)cc1)NC(=O)[C@H](CC(=O)O)NC(=O)[C@H](CO)NC(=O)[C@@H](NC(=O)[C@](C)(Cc1ccccc1F)NC(=O)[C@@H](NC(=O)CNC(=O)[C@H](CCC(=O)O)NC(=O)C(C)(C)NC(=O)[C@@H](N)Cc1ccc(O)cc1)[C@@H](C)O)[C@@H](C)CC)C(=O)N[C@@H](C)C(=O)N[C@@H](CC(C)C)C(=O)N[C@@H](CC(=O)O)C(=O)N[C@@H](CCCCN)C(=O)N[C@H](C(=O)N[C@@H](Cc1c[nH]cn1)C(=O)N[C@@H](CCC(N)=O)C(=O)NC(C)(C)C(=O)N[C@@H](CC(=O)O)C(=O)N[C@@H](Cc1ccccc1)C(=O)N[C@H](C(=O)N[C@@H](CCC(=O)O)C(=O)N[C@@H](Cc1ccc(O)cc1)C(=O)N[C@@H](CCCCNC(=O)COCCOCCNC(=O)COCCOCCNC(=O)CC[C@H](NC(=O)CCCCCCCCCCCCCCCCCCC(=O)O)C(=O)O)C(=O)N[C@@H](CC(C)C)C(=O)N[C@@H](CCC(=O)O)C(=O)NCC(=O)NCC(=O)N1CCC[C@H]1C(=O)N[C@@H](CO)C(=O)N[C@@H](CO)C(=O)NCC(=O)N[C@@H](C)C(=O)N1CCC[C@H]1C(=O)N1CCC[C@H]1C(=O)N1CCC[C@H]1C(=O)N[C@@H](CO)C(N)=O)C(C)C)[C@@H](C)CC` [Example 99] (H-Y[Aib]EGT[αMePhe(2-F)]ISDYSIALDKIHQ[Aib]DFVEYK([AEEA-AEEA-γGlu-C20 diacid])LEGGPSSGAPPPS-NH2): the figures for the EC50 in assay [1], in assay [2] and in assay [3] were 0.00454 nM, greater than 5000 nM and greater than 5000 nM, respectively.
On to `CC[C@H](C)[C@H](NC(=O)[C@H](CCCCN)NC(=O)[C@H](CC(=O)O)NC(=O)[C@H](CC(C)C)NC(=O)[C@](C)(CC(C)C)NC(=O)[C@@H](NC(=O)[C@H](CO)NC(=O)[C@H](Cc1ccc(O)cc1)NC(=O)[C@H](CC(=O)O)NC(=O)[C@H](CO)NC(=O)[C@@H](NC(=O)[C@H](Cc1ccccc1)NC(=O)[C@@H](NC(=O)CNC(=O)[C@H](CCC(=O)O)NC(=O)C(C)(C)NC(=O)[C@@H](N)Cc1ccc(O)cc1)[C@@H](C)O)[C@@H](C)CC)[C@@H](C)CC)C(=O)N[C@@H](Cc1c[nH]cn1)C(=O)N[C@@H](CCC(N)=O)C(=O)NC(C)(C)C(=O)N[C@@H](CCC(=O)O)C(=O)N[C@@H](Cc1ccccc1)C(=O)N[C@H](C(=O)N[C@@H](CCC(=O)O)C(=O)N[C@@H](Cc1ccncc1)C(=O)N[C@@H](CCCCNC(=O)COCCOCCNC(=O)COCCOCCNC(=O)CC[C@H](NC(=O)CCCCCCCCCCCCCCCCCCC(=O)O)C(=O)O)C(=O)N[C@@H](CC(C)C)C(=O)N[C@@H](CCC(=O)O)C(=O)NCC(=O)NCC(=O)N1CCC[C@H]1C(=O)N[C@@H](CO)C(=O)N[C@@H](CO)C(=O)NCC(=O)N[C@@H](C)C(=O)N1CCC[C@H]1C(=O)N1CCC[C@H]1C(=O)N1CCC[C@H]1C(=O)N[C@@H](CO)C(N)=O)C(C)C` [Example 100] (H-Y[Aib]EGTFISDYSI[αMeL]LDKIHQ[Aib]EFVE[4Pal]K([AEEA-AEEA-γGlu-C20 diacid])LEGGPSSGAPPPS-NH2), for which the EC50 (in general, the concentration needed to bring the measured effect to its halfway point) is 0.0224 nM in assay [1], greater than 5000 nM in assay [2] and greater than 5000 nM in assay [3].
As to `CC[C@H](C)[C@H](NC(=O)[C@H](CCCN)NC(=O)[C@H](CC(=O)O)NC(=O)[C@H](CC(C)C)NC(=O)[C@](C)(CC(C)C)NC(=O)[C@@H](NC(=O)[C@H](CO)NC(=O)[C@H](Cc1ccc(O)cc1)NC(=O)[C@H](CC(=O)O)NC(=O)[C@H](CO)NC(=O)[C@@H](NC(=O)[C@H](Cc1ccccc1)NC(=O)[C@@H](NC(=O)CNC(=O)[C@H](CCC(=O)O)NC(=O)C(C)(C)NC(=O)[C@@H](N)Cc1ccc(O)cc1)[C@@H](C)O)[C@@H](C)CC)[C@@H](C)CC)C(=O)N[C@@H](Cc1c[nH]cn1)C(=O)N[C@@H](CCC(N)=O)C(=O)NC(C)(C)C(=O)N[C@@H](CC(=O)O)C(=O)N[C@@H](Cc1ccccc1)C(=O)N[C@H](C(=O)N[C@H](CCC(=O)O)C(=O)N[C@@H](Cc1ccc(O)cc1)C(=O)N[C@@H](CCCCNC(=O)COCCOCCNC(=O)COCCOCCNC(=O)CC[C@H](NC(=O)CCCCCCCCCCCCCCCCCCC(=O)O)C(=O)O)C(=O)N[C@@H](CC(C)C)C(=O)N[C@@H](CCC(=O)O)C(=O)NCC(=O)NCC(=O)N1CCC[C@H]1C(=O)N[C@@H](CO)C(=O)N[C@@H](CO)C(=O)NCC(=O)N[C@@H](C)C(=O)N1CCC[C@H]1C(=O)N1CCC[C@H]1C(=O)N1CCC[C@H]1C(=O)N[C@@H](CO)C(N)=O)C(C)C` [Example 101], the 50% effective concentration (EC50) in assay [1] is 0.0396 nM; in assay [2] it was greater than 5000 nM; in assay [3], greater than 5000 nM.
On to `CC[C@H](C)[C@H](NC(=O)[C@H](CCCN)NC(=O)[C@H](CC(=O)O)NC(=O)[C@H](CC(C)C)NC(=O)[C@](C)(CC(C)C)NC(=O)[C@@H](NC(=O)[C@H](CO)NC(=O)[C@H](Cc1ccc(O)cc1)NC(=O)[C@H](CC(=O)O)NC(=O)[C@H](CO)NC(=O)[C@@H](NC(=O)[C@H](Cc1ccccc1)NC(=O)[C@@H](NC(=O)CNC(=O)[C@H](CCC(=O)O)NC(=O)C(C)(C)NC(=O)[C@@H](N)Cc1ccc(O)cc1)[C@@H](C)O)[C@@H](C)CC)[C@@H](C)CC)C(=O)N[C@@H](Cc1c[nH]cn1)C(=O)N[C@@H](CCC(N)=O)C(=O)NC(C)(C)C(=O)N[C@@H](CCC(=O)O)C(=O)N[C@@H](Cc1ccccc1)C(=O)N[C@H](C(=O)N[C@H](CCC(=O)O)C(=O)N[C@@H](Cc1ccc(O)cc1)C(=O)N[C@@H](CCCCNC(=O)COCCOCCNC(=O)COCCOCCNC(=O)CC[C@H](NC(=O)CCCCCCCCCCCCCCCCCCC(=O)O)C(=O)O)C(=O)N[C@@H](CC(C)C)C(=O)N[C@@H](CCC(=O)O)C(=O)NCC(=O)NCC(=O)N1CCC[C@H]1C(=O)N[C@@H](CO)C(=O)N[C@@H](CO)C(=O)NCC(=O)N[C@@H](C)C(=O)N1CCC[C@H]1C(=O)N1CCC[C@H]1C(=O)N1CCC[C@H]1C(=O)N[C@@H](CO)C(N)=O)C(C)C` [Example 102] (H-Y[Aib]EGTFISDYSI[αMeL]LD[Orn]IHQ[Aib]EFV[dE]YK([AEEA-AEEA-γGlu-C20 diacid])LEGGPSSGAPPPS-NH2), for which the concentration for a half-maximal effect (EC50) is 0.0166 nM in assay [1], greater than 5000 nM in assay [2] and greater than 5000 nM in assay [3].
For the compound `CC[C@H](C)[C@H](NC(=O)[C@H](CCCN)NC(=O)[C@H](CC(=O)O)NC(=O)[C@H](CC(C)C)NC(=O)[C@](C)(CC(C)C)NC(=O)[C@@H](NC(=O)[C@H](CO)NC(=O)[C@H](Cc1ccc(O)cc1)NC(=O)[C@H](CC(=O)O)NC(=O)[C@H](CO)NC(=O)[C@@H](NC(=O)[C@H](Cc1ccccc1)NC(=O)[C@@H](NC(=O)CNC(=O)[C@H](CCC(=O)O)NC(=O)C(C)(C)NC(=O)[C@@H](N)Cc1ccc(O)cc1)[C@@H](C)O)[C@@H](C)CC)[C@@H](C)CC)C(=O)N[C@@H](Cc1c[nH]cn1)C(=O)N[C@@H](CCC(N)=O)C(=O)NC(C)(C)C(=O)N[C@@H](CC(=O)O)C(=O)N[C@@H](Cc1ccccc1)C(=O)N[C@H](C(=O)N[C@@H](CCC(=O)O)C(=O)N[C@@H](Cc1ccc(O)cc1)C(=O)N[C@@H](CCCCNC(=O)COCCOCCNC(=O)COCCOCCNC(=O)CC[C@H](NC(=O)CCCCCCCCCCCCCCCCC(=O)O)C(=O)O)C(=O)N[C@@H](CC(C)C)C(=O)N[C@@H](CCC(=O)O)C(=O)NCC(=O)NCC(=O)N1CCC[C@H]1C(=O)N[C@@H](CO)C(=O)N[C@@H](CO)C(=O)NCC(=O)N[C@@H](C)C(=O)N1CCC[C@H]1C(=O)N1CCC[C@H]1C(=O)N1CCC[C@H]1C(=O)N[C@@H](CO)C(N)=O)C(C)C` [Example 103] (H-Y[Aib]EGTFISDYSI[αMeL]LD[Orn]IHQ[Aib]DFVEYK([AEEA-AEEA-γGlu-C18 diacid])LEGGPSSGAPPPS-NH2), the EC50 was 0.0129 nM in assay [1], greater than 5000 nM in assay [2] and greater than 5000 nM in assay [3].
For the compound `CC[C@H](C)[C@H](NC(=O)[C@H](CCCN)NC(=O)[C@H](CC(=O)O)NC(=O)[C@H](CC(C)C)NC(=O)[C@](C)(CC(C)C)NC(=O)[C@@H](NC(=O)[C@H](CO)NC(=O)[C@H](Cc1ccc(O)cc1)NC(=O)[C@H](CC(=O)O)NC(=O)[C@H](CO)NC(=O)[C@@H](NC(=O)[C@H](Cc1ccccc1)NC(=O)[C@@H](NC(=O)CNC(=O)[C@H](CCC(=O)O)NC(=O)C(C)(C)NC(=O)[C@@H](N)Cc1ccc(O)cc1)[C@@H](C)O)[C@@H](C)CC)[C@@H](C)CC)C(=O)N[C@@H](Cc1c[nH]cn1)C(=O)N[C@@H](CCC(N)=O)C(=O)NC(C)(C)C(=O)N[C@@H](CCC(=O)O)C(=O)N[C@@H](Cc1ccccc1)C(=O)N[C@H](C(=O)N[C@@H](CCC(=O)O)C(=O)N[C@@H](Cc1ccc(O)cc1)C(=O)N[C@@H](CCCCNC(=O)COCCOCCNC(=O)COCCOCCNC(=O)CC[C@H](NC(=O)CCCCCCCCCCCCCCCCCCC(=O)O)C(=O)O)C(=O)N[C@@H](CC(C)C)C(=O)N[C@@H](CCC(=O)O)C(=O)N[C@@H](C)C(=O)NCC(=O)N1CCC[C@H]1C(=O)N[C@@H](CO)C(=O)N[C@@H](CO)C(=O)NCC(=O)N[C@@H](C)C(=O)N1CCC[C@H]1C(=O)N1CCC[C@H]1C(=O)N1CCC[C@H]1C(=O)N[C@@H](CO)C(N)=O)C(C)C` [Example 104] (H-Y[Aib]EGTFISDYSI[αMeL]LD[Orn]IHQ[Aib]EFVEYK([AEEA-AEEA-γGlu-C20 diacid])LEAGPSSGAPPPS-NH2), the EC50 in assay [1] was 0.0165 nM; in assay [2], greater than 5000 nM; in assay [3], greater than 5000 nM.

The record behind these values is patent US12723063B2, “GIPR-agonist compounds” (Eli Lilly and Company, priority 2019, dated 2026).
